Source: PubChem BioAssay (NCI)
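Five concentrations, 48 hours, 96-well plates. GI50: concentration for 50% inhibition of growth. TGI: total growth inhibition.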

Experiments:
Assay in all cases: DTP human tumour cell line panel, 48 h
[1] = system: A498 renal
[2] = system: A549 NSCLC
[3] = system: ACHN renal
[4] = system: CAKI-1 renal
[5] = system: CCRF-CEM leukemia
[6] = system: COLO 205 colon
[7] = system: DU-145 prostate
[8] = system: EKVX NSCLC
[9] = system: HCC-2998 colon
[10] = system: HCT-116 colon
[11] = system: HCT-15 colon
[12] = system: HL-60(TB) leukemia
[13] = system: HOP-62 NSCLC
[14] = system: HOP-92 NSCLC
[15] = system: HS 578T breast
[16] = system: HT29 colon
[17] = system: IGROV1 ovarian
[18] = system: K-562 leukemia
[19] = system: KM12 colon
[20] = system: LOX IMVI melanoma
[21] = system: M14 melanoma
[22] = system: MALME-3M melanoma
[23] = system: MCF7 breast
[24] = system: MDA-MB-231 breast
[25] = system: MDA-MB-435
[26] = system: NCI-H226 lung
[27] = system: NCI-H23 lung
[28] = system: NCI-H460 lung
[29] = system: NCI-H522 lung
[30] = system: NCI/ADR-RES ovarian
[31] = system: OVCAR-3 ovarian
[32] = system: OVCAR-4 ovarian
[33] = system: OVCAR-5 ovarian
[34] = system: OVCAR-8 ovarian
[35] = system: PC-3 prostate
[36] = system: RPMI-8226 leukemia
[37] = system: RXF 393 renal
[38] = system: SF-268 CNS
[39] = system: SF-295 CNS
[40] = system: SF-539 CNS
[41] = system: SK-MEL-2 melanoma
[42] = system: SK-MEL-28 melanoma
[43] = system: SK-MEL-5 melanoma
[44] = system: SN12C renal
[45] = system: SNB-19 CNS
[46] = system: SNB-75 CNS
[47] = system: SR leukemia
[48] = system: SW-620 colon
[49] = system: T-47D breast
[50] = system: TK-10 renal
[51] = system: U251 CNS
[52] = system: UACC-257 melanoma
[53] = system: UACC-62 melanoma
[54] = system: UO-31 renal

COc1ccc(-c2nn(-c3ccc(NC(=O)Nc4cc(C(F)(F)F)cc(C(F)(F)F)c4)cc3)cc2-c2ccncc2)cc1Cl
GI50 [1]: 1310 nM
TGI [1]: 5.32 µM
GI50 [2]: 2840 nM
TGI [2]: > 100 µM
GI50 [3]: 2750 nM
TGI [3]: 58.5 µM
GI50 [4]: 2510 nM
TGI [4]: > 100 µM
GI50 [5]: 2280 nM
TGI [5]: > 100 µM
GI50 [6]: 2060 nM
TGI [6]: 4.17 µM
GI50 [7]: 4.25 µM
TGI [7]: > 100 µM
GI50 [8]: 3.22 µM
TGI [8]: > 100 µM
GI50 [9]: 3.12 µM
TGI [9]: 46.7 µM
GI50 [10]: 1530 nM
TGI [10]: 3.52 µM
GI50 [11]: 2880 nM
TGI [11]: > 100 µM
GI50 [12]: 2500 nM
TGI [12]: 6.58 µM
GI50 [13]: 3.68 µM
TGI [13]: 15.1 µM
GI50 [14]: 1060 nM
TGI [14]: 4.35 µM
GI50 [15]: 1530 nM
TGI [15]: 6.76 µM
GI50 [16]: 2750 nM
TGI [16]: > 100 µM
GI50 [17]: 3.45 µM
TGI [17]: > 100 µM
GI50 [18]: 2770 nM
TGI [18]: > 100 µM
GI50 [19]: 2100 nM
TGI [19]: 7.73 µM
GI50 [20]: 3.31 µM
TGI [20]: > 100 µM
GI50 [21]: 1910 nM
TGI [21]: 4.4 µM
GI50 [22]: 2110 nM
TGI [22]: 7.88 µM
GI50 [23]: 2860 nM
TGI [23]: 9.72 µM
GI50 [24]: 1810 nM
TGI [24]: 4.44 µM
GI50 [25]: 3.03 µM
TGI [25]: > 100 µM
GI50 [26]: 4.1 µM
TGI [26]: 34.2 µM
GI50 [27]: 2780 nM
TGI [27]: > 100 µM
GI50 [28]: 1910 nM
TGI [28]: 5.95 µM
GI50 [29]: 1900 nM
TGI [29]: 7.01 µM
GI50 [30]: 2910 nM
TGI [30]: > 100 µM
GI50 [31]: 2320 nM
TGI [31]: 8.85 µM
GI50 [32]: 2820 nM
TGI [32]: 60.7 µM
GI50 [33]: 2640 nM
TGI [33]: 14.7 µM
GI50 [34]: 3.27 µM
TGI [34]: > 100 µM
GI50 [35]: 1730 nM
TGI [35]: > 100 µM
GI50 [36]: 1230 nM
TGI [36]: 3.58 µM
GI50 [37]: 1690 nM
TGI [37]: 3.87 µM
GI50 [38]: 3.71 µM
TGI [38]: 85.8 µM
GI50 [39]: 2520 nM
TGI [39]: > 100 µM
GI50 [40]: 1870 nM
TGI [40]: 5.37 µM
GI50 [41]: 1930 nM
TGI [41]: 4.38 µM
GI50 [42]: 2220 nM
TGI [42]: 6.18 µM
GI50 [43]: 1930 nM
TGI [43]: 4.34 µM
GI50 [44]: 3.13 µM
TGI [44]: 16.6 µM
GI50 [45]: 4 µM
TGI [45]: 27.3 µM
GI50 [46]: 1800 nM
TGI [46]: 8.11 µM
GI50 [47]: 2540 nM
TGI [47]: 6.56 µM
GI50 [48]: 2990 nM
TGI [48]: > 100 µM
GI50 [49]: 4.1 µM
TGI [49]: 83.3 µM
GI50 [50]: 1850 nM
TGI [50]: 7.25 µM
GI50 [51]: 1850 nM
TGI [51]: 5.48 µM
GI50 [52]: 3.5 µM
TGI [52]: 12.5 µM
GI50 [53]: 2020 nM
TGI [53]: 5.02 µM
GI50 [54]: 1510 nM
TGI [54]: 6.33 µM
